In PubChem BioAssay (NCI):
“And” between values parts separate entries of the source, which are not always exact repeats. Equal entries are not always repeated.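 Briefly, cells in 96-well plates were exposed to five compound concentrations for 48 h, and endpoints were estimated by linear interpolation. GI50 marks 50% less growth. TGI denotes the concentration required for complete inhibition of growth.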

Key:
Experiment in all cases: inhibition of tumour cell growth, NCI panel, 48 h
DMS 273 small cell lung = system: DMS 273 small cell lung
KM20L2 colon = system: KM20L2 colon
M19-MEL melanoma = system: M19-MEL melanoma
SNB-78 CNS = system: SNB-78 CNS
BT-549 breast = system: BT-549 breast
DU-145 prostate = system: DU-145 prostate
HS 578T breast = system: HS 578T breast
MDA-MB-435 = system: MDA-MB-435
NCI/ADR-RES ovarian = system: NCI/ADR-RES ovarian
PC-3 prostate = system: PC-3 prostate

| Structure (SMILES) | TGI (DMS 273 small cell lung) | TGI (KM20L2 colon) | TGI (M19-MEL melanoma) | TGI (SNB-78 CNS) | also measured |
| --- | --- | --- | --- | --- | --- |
| COc1ccc(/C=C(/C(=O)O)c2cc(OC)c(OC)c(OC)c2)cc1 | > 100 µM | 98.2 µM | > 100 µM | > 100 µM |  |
| COc1ccc(N=Cc2cc(OC)c(OC)c(OC)c2)cc1 | > 100 µM | > 100 µM | > 100 µM | > 100 µM | GI50 (DMS 273 small cell lung): 33 µM |
| C[Si](C)(C)c1ccc(CC2(Cc3ccc([Si](C)(C)C)cc3)CCNC2)cc1 | 3.42 µM | 3.93 µM | 3.64 µM | 8.87 µM |  |
| COC(=O)c1c(OC)cccc1C(=O)O | > 100 µM | > 100 µM | > 100 µM | > 100 µM |  |
| O=C1NC(=O)C2C(=O)NC(=O)C1C2(c1ccccc1)c1ccc(Cl)cc1 (configuration not stated) | > 100 µM | > 100 µM | > 100 µM | > 100 µM |  |
| O=[N+]([O-])c1ccc(NSc2ccccc2)cc1 | 33.7 µM | > 100 µM |  | > 100 µM |  |
| CN1CCCNCCN(CCc2ccccn2)CCCN(C)CC1 | 81.5 µM | > 100 µM | > 100 µM | > 100 µM |  |
| O=C(O)CCCc1ccc(N(CCCl)CCCl)cc1 | 28 µM and 161 µM | 60.9 µM and 379 µM | 51.8 µM and 238 µM |  | TGI (BT-549 breast): 290 µM and 289 µM; GI50 (DMS 273 small cell lung): 3.84 µM; GI50 (DU-145 prostate): 41.7 µM; TGI (DU-145 prostate): 590 µM and 191 µM; TGI (HS 578T breast): 570 µM and 312 µM; GI50 (KM20L2 colon): 27.8 µM; GI50 (M19-MEL melanoma): 22.3 µM; GI50 (MDA-MB-435): 173 µM; TGI (MDA-MB-435): 270 µM and 242 µM; GI50 (NCI/ADR-RES ovarian): 39.4 µM; TGI (NCI/ADR-RES ovarian): 329 µM and 118 µM; GI50 (PC-3 prostate): 210 µM; TGI (PC-3 prostate): 416 µM and 609 µM |
| O=C1CC[C@H]2CNC(=O)C[C@H]2C1 | > 100 µM |  | > 100 µM | > 100 µM |  |
| CC(=O)OCCc1cccnc1/C=N/O | > 100 µM | > 100 µM | > 100 µM | > 100 µM |  |
| CCCCn1/c(=N/C(=S)N(C)C)ss/c1=N\C(=S)N(C)C | > 100 µM | > 100 µM | > 100 µM | > 100 µM |  |
| CC1=C[C@@H]2Cc3occc3C(C)(C)[C@@H]2CC1 | 26.8 µM | 33.8 µM | 31.2 µM | 66.6 µM |  |
| Cc1cc(C)nc(NS(=O)(=O)c2ccc(NC(=O)c3cccc4c(=O)c5ccccc5[nH]c34)cc2)n1 | 48.4 µM | 40.5 µM |  | 48.6 µM |  |
| O=C1Oc2cc3c(c4cccc1c24)OCN(c1ccc(Cl)cc1)C3 | > 100 µM | > 100 µM | > 57 µM | > 100 µM |  |
| CC(C)(C)C1=NC(S)NC(CCC(=O)Nc2ccccc2[N+](=O)[O-])=C1 (configuration not stated) |  | > 100 µM | > 100 µM | > 100 µM |  |
| Cc1c(C(=O)/C=C/c2cccc3ccccc23)[n+](=O)c2ccccc2n1[O-] | 24.5 µM | 27.9 µM | 26.4 µM | 47.8 µM |  |
| OCCNCO | > 100 µM | > 100 µM | > 100 µM | > 100 µM |  |
| Cc1nc2nnc(C)n2c2c1C(=O)Nc1ccccc1N2 | > 100 µM | > 100 µM | > 100 µM | > 100 µM |  |

| Structure (SMILES) | TGI (DMS 273 small cell lung) | TGI (KM20L2 colon) | TGI (M19-MEL melanoma) | TGI (SNB-78 CNS) | also measured |
| --- | --- | --- | --- | --- | --- |
| OCc1c(-c2cccc3ccccc23)sc(-c2cccc3ccccc23)c1CO | 28.5 µM | 24.6 µM | 29.4 µM | 31.5 µM |  |
| CC(=O)/C=C/c1cccc(N=S)c1 | 20.9 µM | 37 µM | 18.3 µM | > 100 µM |  |
| Cc1cccc(C(C)(C)C)c1NC(=O)C(=O)Cc1nc2ccccc2s1 | > 100 µM | > 100 µM | > 100 µM | > 100 µM |  |
| C[C@]12CCC(=O)C=C1CC[C@@H]1C2CC[C@]2(C)NC(=O)C(C#N)CC12 (some centres not stated) | > 100 µM | > 100 µM | > 100 µM | > 100 µM |  |
| O=C(O/N=C1/CCC/C1=C\c1ccccc1)c1ccc([N+](=O)[O-])cc1 | > 100 µM | > 100 µM | > 100 µM | > 100 µM |  |
| C1CN2N3CCCC23C1 (configuration not stated) | > 100 µM | > 100 µM | > 100 µM | > 100 µM |  |
| COc1cc2c(c(O)c1C)C(=O)C(Cl)=CC2=O | 34.5 µM | 49.1 µM | 20.9 µM | 17.4 µM | TGI (BT-549 breast): 18.4 µM; TGI (DU-145 prostate): 13.3 µM; TGI (HS 578T breast): 97.4 µM; TGI (MDA-MB-435): 16.4 µM; TGI (NCI/ADR-RES ovarian): 66.7 µM; TGI (PC-3 prostate): 28.7 µM |
| COc1cc([C@@H]2c3cc4c(cc3[C@@H](NC(=O)c3cccc([N+](=O)[O-])c3)C3COC(=O)[C@@H]32)OCO4)cc(OC)c1O (some centres not stated) | > 100 µM | > 57.7 µM | > 100 µM | > 100 µM |  |
| C/C(=N\NC(N)=S)c1ccc(C)cc1C | > 100 µM | > 100 µM | > 100 µM | > 100 µM |  |
| COc1cc2c(cc1OC)C1C=NC(C(=O)O)(C2)c2ccccc21 (configuration not stated) | > 100 µM | > 100 µM | > 100 µM | > 100 µM |  |
| Cc1cccc2c3ccc4c(c3n(C)c12)C(=O)C=CC4=O | > 100 µM |  | > 100 µM | > 100 µM |  |
| O=C1/C(=C/c2ccccc2)CN(C(=O)Oc2ccc(Cl)cc2)C/C1=C\c1ccccc1 | 4.18 µM | 8.28 µM | 2.41 µM | > 26.8 µM |  |
| c1ccc(-c2nnc(-c3nn(-c4ccccc4)c4nc5ccccc5nc34)o2)cc1 | > 100 µM | > 100 µM | > 100 µM | > 100 µM |  |
| O=C(N/N=C/c1cccc(O)c1O)N/N=C/c1cccc(O)c1O | 65.2 µM | 95.2 µM | > 100 µM | > 100 µM |  |
| CC1(C)N=C(N)N=C(N)N1c1ccc(CCCCc2ccc(S(=O)(=O)F)cc2Cl)c(Cl)c1 |  | 163 µM |  | 48.6 µM | TGI (BT-549 breast): 14.5 µM; TGI (DU-145 prostate): 90.4 µM; TGI (HS 578T breast): > 500 µM; TGI (MDA-MB-435): > 500 µM; TGI (NCI/ADR-RES ovarian): 347 µM; TGI (PC-3 prostate): 112 µM |
| O=C(O)c1cc(S(=O)(=O)N=NC=C2c3ccccc3N(O)c3ccccc32)ccc1O | 34.6 µM | 63.6 µM | 58.6 µM | 96.5 µM |  |
| CCCCCCCCCCCCCCC1OC(=O)c2ccccc21 (configuration not stated) |  | > 100 µM | > 100 µM | > 100 µM |  |
